Values of other authors in patent US8288116B2, “Methods and compositions for isolating metastatic cancer cells, and use in measuring metastatic potential of a cancer thereof” (The Research Foundation of State University of New York, priority 2000, dated 2012).

Test system: patients with cancer
Details: trials in patients with cancer
For `CC1(C)SCCN(S(=O)(=O)c2ccc(Oc3ccncc3)cc2)[C@H]1C(=O)NO` [AG3340], the “anti-metastatic, anti-invasive effects” value is listed as “not produced obvious evidence”.
In the case of `CNC(=O)[C@@H](NC(=O)[C@H](CC(C)C)[C@H](O)C(=O)NO)C(C)(C)C` [Marimastat], the “anti-metastatic, anti-invasive effects” value is listed as “not produced obvious evidence”.
For angiostatin, the “anti-metastatic, anti-invasive effects” value is listed as “not produced obvious evidence”.
In the case of endostatin, the “anti-metastatic, anti-invasive effects” value is given as “not produced obvious evidence”.
